{"source": "patent US9034922B2", "about": "“Composition for maintaining function of platelets” (THE UNIVERSITY OF TOKYO, priority 2010, dated 2015)", "system": "human peripheral blood platelets adhering to VWF", "test": "Adhesion ability of platelets to VWF-coated flow chamber", "format": "cell-based", "settings": "Test Example 15; platelets incubated with 15 μM S-45457 and 100 μM CCCP, 37° C., 24 hours; wall shear rate 1500 S^−1", "experimental": "Then, the supernatant was removed. The precipitate thus obtained was suspended in a Tyrode HEPES Ca(−) buffer, added with 100 μM CCCP and simultaneously added with one of either DMSO or 15 μM S-45457 and followed by incubation at 37° C. for 24 hours. Note that, in this experiment, one obtained by adding CCCP and DMSO and the subsequent incubation was prepared as a negative control, while one obtained without the addition or the incubation treatments was prepared as a positive control.\nFurther, after the incubation (in the case of the positive control, without incubation), the suspension was added with TMRE (tetramethylrhodamine ethyl ester perchlorate) having been diluted to 1/2000 and incubated at room temperature for 15 minutes to label the platelets with fluorescence. […]\nNext, each of fluorescence-labelled platelet samples was added to and mixed with a whole blood sample of collected human peripheral blood anticoagulated with argatroban (thrombin inhibitor) so that the number of platelets of the fluorescence-labelled platelet sample was 10% of the whole blood platelets. […] The fluorescence-labelled platelets which formed a thrombus were visualized using an inverted stage epifluorescence video microscope system (DM IRB, manufactured by Leica). […] Further, a percentage of surface area covered by platelets was calculated using Image-J software (NIH Image). […]", "data": [{"smiles": "CC#CCOc1ccc(S(=O)(=O)CC(c2ccc(CNS(C)(=O)=O)cc2)N(O)C=O)cc1", "note": "(stereo not shown) [Compound I-4, N-{4-[2-(4-But-2-ynyloxybenzenesulfonyl)-1-(formylhydroxyamino)ethyl]benzyl}methanesulfonamide]", "values": [{"measurement": "percentage of surface area covered by platelets", "result": "high percentage of surface area covered by the platelets in comparison with the result of the negative control"}]}]}
